Earlier results in article PMC11678311, “Log BB Prediction Models Using TLC and HPLC Retention Values as Protein Affinity Data” (Pharmaceutics, 2024).

Conditions: drugs highly bound to plasma proteins whose log BB may be less than zero

Row | Compound | penetration of the blood–brain barrier / central action
1 | CC(C)Cc1ccc(C(C)C(=O)O)cc1 (centres unmarked) [ibuprofen] | cross the blood–brain barrier in an unbound state and act centrally
2 | Cc1ncc2n1-c1ccc(Cl)cc1C(c1ccccc1F)=NC2 [midazolam] | cross the blood–brain barrier in an unbound state and act centrally
